Measurements reported in the CheMixHub viscosity set.

Assay: xn = mol fraction of the nth substance listed

CCCC[N+](CCCC)(CCCC)CCCC.O=[N+]([O-])[O-] + O
viscosity [mPa·s], 101 kPa
Settings	298.15 K	308.15 K	318.15 K	323.15 K
x1 = 0.000175	0.9058	0.7311	0.6051	0.5548
x1 = 0.0007208	0.9399	0.7555	0.6231	0.5704
x1 = 0.0009037	0.9512	0.7635	0.629	0.5756
x1 = 0.001282	0.9739	0.7798	0.6411	0.586
x1 = 0.001513	0.9877	0.7898	0.6484	0.5923
x1 = 0.002132	1.024	0.8156	0.6675	0.609
x1 = 0.00641	1.328	1.024	0.8259	0.747
x1 = 0.006556	1.335	1.035	0.8318	0.7536
x1 = 0.009813	1.592	1.21	0.9594	0.8647
x1 = 0.0134	1.907	1.431	1.107	1.002
x1 = 0.0182	2.346	1.735	1.333	1.182
x1 = 0.01938	2.474	1.813	1.399	1.241
x1 = 0.02698	3.292	2.346	1.808	1.573
x1 = 0.03856	4.744	3.175	2.424	2.123
x1 = 0.06582	8.699	5.748	4.183	3.578
x1 = 0.08624	12.21	7.98	5.611	4.732
x1 = 0.1165	18.05	11.05	7.815	6.642

CCCC[NH2+]CCO.O=C([O-])c1ccccc1O + O
100 kPa, x2 = 0.142
Settings	viscosity [mPa·s]
298 K	876
303 K	582.8
313 K	275.5
323 K	145

C[NH+](C)CCO.O=C([O-])CC(O)C(=O)O (stereo not drawn) + O
101 kPa, x2 = 0.89
Settings	viscosity [mPa·s]
298 K	18.3
313 K	10.3

N + O
Settings	viscosity [mPa·s]
293.15 K, 100 kPa, x1 = 0.1035	1.166
293.15 K, 101 kPa, x1 = 0.0111	1.025
303 K, 100 kPa, x1 = 0.053	0.86
303 K, 100 kPa, x1 = 0.105	0.92
303 K, 100 kPa, x1 = 0.157	0.97
303 K, 100 kPa, x1 = 0.209	1
303.15 K, 100 kPa, x1 = 0.05336	0.838
303.15 K, 100 kPa, x1 = 0.1035	0.994
313 K, 100 kPa, x1 = 0.053	0.69
313 K, 100 kPa, x1 = 0.105	0.72
313 K, 100 kPa, x1 = 0.157	0.75
313 K, 100 kPa, x1 = 0.209	0.79
313.15 K, 100 kPa, x1 = 0.05336	0.666
313.15 K, 100 kPa, x1 = 0.1035	0.833
